From patent publication US7442373B2 (priority 2003, dated 2008)

What was measured:
[1] = system: Bacillus anthracis spores; design: species or system Hartley guinea pigs; conditions: guinea pig, in vivo
Bacillus anthracis Ames = system: Bacillus anthracis Ames; design: species or system Swiss-Webster mice; conditions: mouse, in vivo

Compound	ED50 dose [1]	protection at low dose 1.12 mg/day [1]	animals protected (Bacillus anthracis Ames)	protection, antibody alone ([1]; ip)
O=C(O)c1cn(C2CC2)c2cc(N3CCNCC3)c(F)cc2c1=O [ciprofloxacin]	3 mg/day	non-protective	–	–
AVP-21D9	–	–	40%	provided protection and delayed the mean time of death
